Source: patent US11260139B2, “Rapid surface disinfection method and apparatus” (priority 2011, dated 2022)

System: S. aureus bacteria
Test: survival of S. aureus bacteria on agar culture plates following 3 sec. exposure to atomized liquid
Assay type: cell-based
Settings: for antimicrobial effectiveness of the liquid as solvent of the nitric oxide solution: liquid atomized with NO, rank: ethanol>isopropanol>water
Protocol: The survival fraction is the fraction of at least 100 colonies that survive the treatment. Control plates were exposed to air for 3 sec. Ethanol plates were exposed to ethanol atomized with nitrogen. 25% NO plates were exposed to ethanol atomized with 25% NO and 75% nitrogen.
Experiments were conducted on agar culture plates to compare nitric oxide concentrations ranging from 0% in nitrogen (the ‘ethanol’ experiment) to 100% NO.

SMILES | antimicrobial effectiveness of the liquid as solvent of the nitric oxide solution | effect of NO on the antimicrobial activity of the atomized liquid (NO concentrations 0% to 100% in nitrogen compared)
CC(C)O [isopropanol] | effective | 
[N]=O [NO, nitric oxide] |  | dramatically increases the antimicrobial activity
CCO [ethanol] | effective | 
O [water] | effective | 
